Laboratory results from paper PMC8762706, “Design of Coibamide A Mimetics with Improved Cellular Bioactivity” (ACS Medicinal Chemistry Letters, 2021).
Like-named read-outs stand apart in the source and are kept apart here. Where a SMILES comes first, the peptide text is derived from it. Bridges are numbered along the chain shown (N, C = ends). [ ]: non-standard residue; d: D form. The star is where a group is joined. Phe(4-N3) = [N-]=[N+]=Nc1ccc(C[C@H](N)C(=O)O)cc1; Phe(4-tBu) = CC(C)(C)c1ccc(C[C@H](N)C(=O)O)cc1; Bip = N[C@@H](Cc1ccc(-c2ccccc2)cc1)C(=O)O; Phe(4-CN) = N#Cc1ccc(C[C@H](N)C(=O)O)cc1; Phe(4-Cl) = N[C@@H](Cc1ccc(Cl)cc1)C(=O)O; 1Nal = N[C@@H](Cc1cccc2ccccc12)C(=O)O; 2Nal = N[C@@H](Cc1ccc2ccccc2c1)C(=O)O; NMe2Val = CC(C)[C@@H](C(=O)*)N(C)C; NMeLys(Me) = CNCCCC[C@H](NC)C(=O)O; NMeF = CN[C@@H](Cc1ccccc1)C(=O)O; NMeI = CC[C@H](C)[C@H](NC)C(=O)O; NMeT = CN[C@H](C(=O)O)[C@@H](C)O; Tic = O=C(O)[C@@H]1Cc2ccccc2CN1; NMeL = CN[C@@H](CC(C)C)C(=O)O; dHiv = CC(C)[C@@H](O)C(=O)O; NMeS = CN[C@@H](CO)C(=O)O; NMeA = CN[C@@H](C)C(=O)O; dNMeA = CN[C@H](C)C(=O)O; CF3 = FC(F)(F)*; tBu = CC(C)(C)*

Tested on: A549 cells
Assay: Growth inhibition assay (MTS) in A549 cells
Assay type: cell-based
Details: for cytotoxicity / bioactivity in words: MTS assay; for fold more potent cytotoxicity than 1 (coibamide A): ratio of IC50 values to 1
Description: Growth Inhibition AssayS3
A549 cells were cultured in Dulbecco’s modified Eagle’s medium (DMEM; Sigma) supplemented with 10% (v/v) fetal bovine serum at 37 °C in a 5% CO2-incubator. Growth inhibition assays using A549 cells were performed in 96-well plates (BD Falcon). A549 cells were seeded at 1000 cells/well in 90 μL of culture media, respectively, and were cultured for 24 h. Chemical compounds in DMSO were diluted 50-fold with the culture medium in advance. 30 μL of the chemical diluents were added.
The final volume of DMSO in the medium was equal to 0.5% (v/v). The cells under chemical treatment were incubated for a further 72 h. The wells in the plates were washed twice with the cultured medium without phenol-red. After 1-hour incubation with 100 μL of the medium, the cell culture in each well was supplemented with 20 μL of the MTS reagent (Promega), followed by incubation for additional 40 min. Absorbance at 490 nm of each well was measured using a Wallac 1420 ARVO SX multilabel counter (Perkin Elmer). Three experiments were performed per condition and the averages of inhibition rates in each condition were evaluated to determine IC50 values using the GraphPad Prism software.

[1] = read-out: IC50 (concentration for 50% growth inhibition of A549 cells), MTS assay, 72 h treatment, 0.5% DMSO, absorbance 490 nm, n = 3
[2] = read-out: IC50 (concentration for 50% growth inhibition of A549 cells), MTS assay, 72 h treatment, n = 3

SMILES | IC50 [1] [µM] | other results
CC[C@H](C)[C@H]1C(=O)N[C@@H](C)C(=O)N(C)[C@@H](CC(C)C)C(=O)N[C@@H](Cc2ccc(C#N)cc2)C(=O)N(C)CCCC[C@H](N(C)C(=O)[C@H](CC(C)C)N(C)C(=O)[C@H](C)N(C)C(=O)[C@H](OC(=O)[C@H](C(C)C)N(C)C)C(C)C)C(=O)N(C)[C@@H](C)C(=O)N1C [10d] (NMe2Val-[dHiv][NMeA][NMeL][NMeLys(Me)][NMeA][NMeI]A[NMeL][Phe(4-CN)]; lactam 4-C) | 1.5 ± 0.5 | 
CC[C@H](C)[C@H]1C(=O)N[C@@H](C)C(=O)N(C)[C@@H](CC(C)C)C(=O)N[C@@H](Cc2ccc(N=[N+]=[N-])cc2)C(=O)N(C)CCCC[C@H](N(C)C(=O)[C@H](CC(C)C)N(C)C(=O)[C@H](C)N(C)C(=O)[C@H](OC(=O)[C@H](C(C)C)N(C)C)C(C)C)C(=O)N(C)[C@@H](C)C(=O)N1C [10e] (NMe2Val-[dHiv][NMeA][NMeL][NMeLys(Me)][NMeA][NMeI]A[NMeL][Phe(4-N3)]; lactam 4-C) | 0.38 ± 0.05 | 
CC[C@H](C)[C@H]1C(=O)N[C@@H](C)C(=O)N(C)[C@@H](CC(C)C)C(=O)N[C@@H](Cc2ccc(Cl)cc2)C(=O)N(C)CCCC[C@H](N(C)C(=O)[C@H](CC(C)C)N(C)C(=O)[C@H](C)N(C)C(=O)[C@H](OC(=O)[C@H](C(C)C)N(C)C)C(C)C)C(=O)N(C)[C@@H](C)C(=O)N1C [10f] (NMe2Val-[dHiv][NMeA][NMeL][NMeLys(Me)][NMeA][NMeI]A[NMeL][Phe(4-Cl)]; lactam 4-C) | 0.71 ± 0.19 | 
CC[C@H](C)[C@H]1C(=O)N[C@@H](C)C(=O)N(C)[C@@H](CC(C)C)C(=O)N[C@@H](Cc2ccc(C(C)(C)C)cc2)C(=O)N(C)CCCC[C@H](N(C)C(=O)[C@H](CC(C)C)N(C)C(=O)[C@H](C)N(C)C(=O)[C@H](OC(=O)[C@H](C(C)C)N(C)C)C(C)C)C(=O)N(C)[C@@H](C)C(=O)N1C [10g] (NMe2Val-[dHiv][NMeA][NMeL][NMeLys(Me)][NMeA][NMeI]A[NMeL][Phe(4-tBu)]; lactam 4-C) | 0.61 ± 0.21 | 
CC[C@H](C)[C@H]1C(=O)N[C@@H](C)C(=O)N(C)[C@@H](CC(C)C)C(=O)N[C@@H](Cc2ccc(OC(C)(C)C)cc2)C(=O)N(C)CCCC[C@H](N(C)C(=O)[C@H](CC(C)C)N(C)C(=O)[C@H](C)N(C)C(=O)[C@H](OC(=O)[C@H](C(C)C)N(C)C)C(C)C)C(=O)N(C)[C@@H](C)C(=O)N1C [10h] (NMe2Val-[dHiv][NMeA][NMeL][NMeLys(Me)][NMeA][NMeI]A[NMeL]Y(tBu); lactam 4-C) | 1 ± 0.1 | 
CC[C@H](C)[C@H]1C(=O)N[C@@H](C)C(=O)N(C)[C@@H](CC(C)C)C(=O)N[C@@H](Cc2ccc(OC(F)(F)F)cc2)C(=O)N(C)CCCC[C@H](N(C)C(=O)[C@H](CC(C)C)N(C)C(=O)[C@H](C)N(C)C(=O)[C@H](OC(=O)[C@H](C(C)C)N(C)C)C(C)C)C(=O)N(C)[C@@H](C)C(=O)N1C [10i] (NMe2Val-[dHiv][NMeA][NMeL][NMeLys(Me)][NMeA][NMeI]A[NMeL]Y(CF3); lactam 4-C) | 0.32 ± 0.03 | 
CC[C@H](C)[C@H]1C(=O)N[C@@H](C)C(=O)N(C)[C@@H](CC(C)C)C(=O)N(C)[C@@H](Cc2ccccc2)C(=O)N(C)CCCC[C@H](N(C)C(=O)[C@H](CC(C)C)N(C)C(=O)[C@H](C)N(C)C(=O)[C@H](OC(=O)[C@H](C(C)C)N(C)C)C(C)C)C(=O)N(C)[C@@H](C)C(=O)N1C [10n] (NMe2Val-[dHiv][NMeA][NMeL][NMeLys(Me)][NMeA][NMeI]A[NMeL][NMeF]; lactam 4-C) | > 10 | cytotoxicity / bioactivity in words: loss of bioactivity
CC[C@H](C)[C@H]1C(=O)N[C@@H](C)C(=O)N(C)[C@@H](CC(C)C)C(=O)N2Cc3ccccc3C[C@H]2C(=O)N(C)CCCC[C@H](N(C)C(=O)[C@H](CC(C)C)N(C)C(=O)[C@H](C)N(C)C(=O)[C@H](OC(=O)[C@H](C(C)C)N(C)C)C(C)C)C(=O)N(C)[C@@H](C)C(=O)N1C [10o] (NMe2Val-[dHiv][NMeA][NMeL][NMeLys(Me)][NMeA][NMeI]A[NMeL][Tic]; lactam 4-C) | > 10 | cytotoxicity / bioactivity in words: loss of bioactivity
CC[C@H](C)[C@H]1C(=O)N[C@@H](C)C(=O)N(C)[C@@H](CC(C)C)C(=O)N[C@@H](Cc2cccc3ccccc23)C(=O)N(C)CCCC[C@H](N(C)C(=O)[C@H](CC(C)C)N(C)C(=O)[C@H](C)N(C)C(=O)[C@H](OC(=O)[C@H](C(C)C)N(C)C)C(C)C)C(=O)N(C)[C@@H](C)C(=O)N1C [10p] (NMe2Val-[dHiv][NMeA][NMeL][NMeLys(Me)][NMeA][NMeI]A[NMeL][1Nal]; lactam 4-C) | 4.8 ± 0.5 | 
CC[C@H](C)[C@H]1C(=O)N[C@@H](C)C(=O)N(C)[C@@H](CC(C)C)C(=O)N[C@@H](Cc2ccc3ccccc3c2)C(=O)N(C)CCCC[C@H](N(C)C(=O)[C@H](CC(C)C)N(C)C(=O)[C@H](C)N(C)C(=O)[C@H](OC(=O)[C@H](C(C)C)N(C)C)C(C)C)C(=O)N(C)[C@@H](C)C(=O)N1C [10q] (NMe2Val-[dHiv][NMeA][NMeL][NMeLys(Me)][NMeA][NMeI]A[NMeL][2Nal]; lactam 4-C) | 0.28 ± 0.03 | 
CC[C@H](C)[C@H]1C(=O)N[C@@H](C)C(=O)N(C)[C@@H](CC(C)C)C(=O)N[C@@H](Cc2ccc(OC)cc2)C(=O)N(C)[C@H](C)C(=O)O[C@H](C)[C@H](N(C)C(=O)[C@H](CC(C)C)N(C)C(=O)[C@H](COC)N(C)C(=O)[C@H](OC(=O)[C@H](C(C)C)N(C)C)C(C)C)C(=O)N(C)[C@@H](COC)C(=O)N1C [coibamide A] (NMe2Val-[dHiv][NMeS](Me)[NMeL][NMeT][NMeS](Me)[NMeI]A[NMeL]Y(Me)[dNMeA]; ester 4-C) |  | IC50 [2]: 0.0014 ± 0.0004 µM
CC[C@H](C)[C@H]1C(=O)N[C@@H](C)C(=O)N(C)[C@@H](CC(C)C)C(=O)N[C@@H](Cc2ccc(-c3ccccc3)cc2)C(=O)N(C)[C@H](C)C(=O)O[C@H](C)[C@H](N(C)C(=O)[C@H](CC(C)C)N(C)C(=O)[C@H](COC)N(C)C(=O)[C@H](OC(=O)[C@H](C(C)C)N(C)C)C(C)C)C(=O)N(C)[C@@H](COC)C(=O)N1C [compound 11, [Bph^10]-CbA] (NMe2Val-[dHiv][NMeS](Me)[NMeL][NMeT][NMeS](Me)[NMeI]A[NMeL][Bip][dNMeA]; ester 4-C) |  | fold more potent cytotoxicity than 1 (coibamide A): 12 fold
CC[C@H](C)[C@H]1C(=O)N[C@@H](C)C(=O)N(C)[C@@H](CC(C)C)C(=O)N[C@@H](Cc2ccc(-c3ccccc3)cc2)C(=O)N(C)[C@H](C)C(=O)O[C@H](C)[C@H](N(C)C(=O)[C@H](CC(C)C)N(C)C(=O)[C@H](C)N(C)C(=O)[C@H](OC(=O)[C@H](C(C)C)N(C)C)C(C)C)C(=O)N(C)[C@@H](C)C(=O)N1C [compound 12, [MeAla^3, MeAla^6, Bph^10]-CbA] (NMe2Val-[dHiv][NMeA][NMeL][NMeT][NMeA][NMeI]A[NMeL][Bip][dNMeA]; ester 4-C) |  | fold more potent cytotoxicity than 1 (coibamide A): 5.6 fold; IC50 [2]: 0.00025 µM
